pIC50: −log10 of the molar value.
What was measured:
Beta-secretase 1 [1] = target: T1, Beta-secretase 1 (Homo sapiens, UniProt P56817); assay: Inhibition of BACE1
Beta-secretase 1 [2] = target: T1, Beta-secretase 1; assay: Inhibition of human BACE1 expressed in mouse fibroblast cells assessed as inhibition of secreted APPbeta-NF production at pH 7.2; assay type: cell-based

T1 sequence (P56817 whole entry): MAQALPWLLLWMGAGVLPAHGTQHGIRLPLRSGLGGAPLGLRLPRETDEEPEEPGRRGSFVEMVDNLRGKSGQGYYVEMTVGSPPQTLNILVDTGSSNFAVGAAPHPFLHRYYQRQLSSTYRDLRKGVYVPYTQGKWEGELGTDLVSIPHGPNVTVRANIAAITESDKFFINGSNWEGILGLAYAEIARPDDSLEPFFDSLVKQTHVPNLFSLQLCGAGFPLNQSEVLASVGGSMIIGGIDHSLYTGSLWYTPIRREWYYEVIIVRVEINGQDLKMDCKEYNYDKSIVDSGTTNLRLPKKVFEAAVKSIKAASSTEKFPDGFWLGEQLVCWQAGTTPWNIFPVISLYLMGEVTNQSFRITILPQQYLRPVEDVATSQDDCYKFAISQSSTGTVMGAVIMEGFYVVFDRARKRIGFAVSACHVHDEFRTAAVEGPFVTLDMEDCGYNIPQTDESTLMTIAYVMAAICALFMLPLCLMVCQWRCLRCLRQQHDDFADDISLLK

pIC50 (Beta-secretase 1 [1])	pIC50 (Beta-secretase 1 [2])	Structure (SMILES)
6.46	6.86	C[C@@H](NC(=O)c1cc(COC[C@](C)(N)Cc2ccccc2)cc(N(C)S(C)(=O)=O)c1)c1ccc(F)cc1
6.00	6.36	C[C@@H](NC(=O)c1cc(COCC(N)(CF)Cc2ccccc2)cc(N(C)S(C)(=O)=O)c1)c1ccc(F)cc1 (mixture of isomers)
4.60		C[C@@H](NC(=O)c1cc(C(=O)NCC(O)(CO)Cc2ccccc2)cc(N(C)S(C)(=O)=O)c1)c1ccc(F)cc1 (some centres undefined)
< 4.00		C[C@@H](NC(=O)c1cc(NCCC(N)(CO)Cc2ccccc2)cc(N(C)S(C)(=O)=O)c1)c1ccc(F)cc1 (some centres undefined)
6.03	< 4.70	C[C@@H](NC(=O)c1cc(COCC(N)(Cc2ccccc2)C(F)F)cc(N(C)S(C)(=O)=O)c1)c1ccc(F)cc1 (mixture of isomers)
4.15		C[C@@H](NC(=O)c1cc(OCCC(N)(CO)Cc2ccccc2)cc(N(C)S(C)(=O)=O)c1)c1ccc(F)cc1 (some centres undefined)
5.00	5.77	C[C@@H](NC(=O)c1cc(COC[C@H](N)Cc2ccccc2)cc(N(C)S(C)(=O)=O)c1)c1ccc(F)cc1
< 4.00		C[C@@H](NC(=O)c1cc(SCCC(N)(CO)Cc2ccccc2)cc(N(C)S(C)(=O)=O)c1)c1ccc(F)cc1 (some centres undefined)
4.97		C[C@@H](NC(=O)c1cc(C(=O)NCC(N)(CO)Cc2ccccc2)cc(N(C)S(C)(=O)=O)c1)c1ccc(F)cc1 (some centres undefined)
6.51	6.16	C[C@@H](NC(=O)c1cc(COC(=O)C(N)(CO)Cc2ccccc2)cc(N(C)S(C)(=O)=O)c1)c1ccc(F)cc1 (some centres undefined)
5.69		C[C@@H](NC(=O)c1cc(-c2noc([C@](C)(N)Cc3ccccc3)n2)cc(N(C)S(C)(=O)=O)c1)c1ccc(F)cc1
4.65		C[C@@H](NC(=O)c1cc(C(=O)OCC(O)(CN)Cc2ccccc2)cc(N(C)S(C)(=O)=O)c1)c1ccc(F)cc1 (some centres undefined)
5.24		C[C@@H](NC(=O)c1cc(CNC(=O)C(C)(N)Cc2ccccc2)cc(N(C)S(C)(=O)=O)c1)c1ccc(F)cc1 (some centres undefined)
< 4.00		CNC(CO)(COC(=O)c1cc(C(=O)N[C@H](C)c2ccc(F)cc2)cc(N(C)S(C)(=O)=O)c1)Cc1ccccc1 (some centres undefined)
7.70	8.40	C[C@@H](NC(=O)c1cc(-c2ccc(C(C)(N)Cc3ccccc3)o2)cc(N(C)S(C)(=O)=O)c1)c1ccc(F)cc1 (mixture of isomers)
4.65		C[C@@H](NC(=O)c1cc(CCC[C@](N)(CO)Cc2ccccc2)cc(N(C)S(C)(=O)=O)c1)c1ccc(F)cc1
4.74		C[C@@H](NC(=O)c1cc(CNC(=O)C(N)(CO)Cc2ccccc2)cc(N(C)S(C)(=O)=O)c1)c1ccc(F)cc1 (some centres undefined)
5.00	5.46	C[C@@H](NC(=O)c1cc(CNC[C@](N)(CO)Cc2ccccc2)cc(N(C)S(C)(=O)=O)c1)c1ccc(F)cc1
4.66		CCC(N)(COCc1cc(C(=O)N[C@H](C)c2ccc(F)cc2)cc(N(C)S(C)(=O)=O)c1)Cc1ccccc1 (mixture of isomers)
5.86	6.24	C[C@@H](NC(=O)c1cc(COC[C@](N)(CO)Cc2ccccc2)cc(N(C)S(C)(=O)=O)c1)c1ccc(F)cc1
4.79		C[C@@H](NC(=O)c1cc(N(C)S(C)(=O)=O)cc(-n2cc([C@](C)(N)Cc3ccccc3)nn2)c1)c1ccc(F)cc1
< 4.00		C[C@@H](NC(=O)c1cc(N(C)S(C)(=O)=O)cc(S(=O)(=O)CCC(N)(CO)Cc2ccccc2)c1)c1ccc(F)cc1 (some centres undefined)
5.74		C[C@@H](NC(=O)c1cc(-c2nc([C@](C)(N)Cc3ccccc3)no2)cc(N(C)S(C)(=O)=O)c1)c1ccc(F)cc1
4.52		C[C@@H](NC(=O)c1cc(-c2nnc([C@](C)(N)Cc3ccccc3)s2)cc(N(C)S(C)(=O)=O)c1)c1ccc(F)cc1
< 4.00		COCC(N)(COCc1cc(C(=O)N[C@H](C)c2ccc(F)cc2)cc(N(C)S(C)(=O)=O)c1)Cc1ccccc1 (mixture of isomers)

Structure (SMILES)	pIC50 (Beta-secretase 1 [1])	pIC50 (Beta-secretase 1 [2])
C[C@@H](NC(=O)c1cc(-c2ncc([C@](C)(N)Cc3ccccc3)o2)cc(N(C)S(C)(=O)=O)c1)c1ccc(F)cc1	8.15	8.30
C[C@@H](NC(=O)c1cc(COC(=O)C(C)(N)Cc2ccccc2)cc(N(C)S(C)(=O)=O)c1)c1ccc(F)cc1 (some centres undefined)	7.72	6.79
C[C@@H](NC(=O)c1cc(-c2n[nH]c([C@](C)(N)Cc3ccccc3)n2)cc(N(C)S(C)(=O)=O)c1)c1ccc(F)cc1	6.09	5.32

— ChEMBL document CHEMBL1155422, “SAR of tertiary carbinamine derived BACE1 inhibitors: role of aspartate ligand amine pKa in enzyme inhibition” (Bioorg Med Chem Lett, 2010)
